Experimental data from patent publication US8835479B2, “Agent for fungal dermatitis” (Nihon Nohyaku Co., Ltd., priority 2007, dated 2014).

Test system: Malassezia restricta clinical isolate (R-4)
Assay: Treatment effect on guinea pig seborrheic dermatitis model
Type: in vivo
Details: 1% luliconazole cream, 0.1 mL/inoculation site/day for 3 days, compared with 2% ketoconazole cream
Experimental: Efficacy Evaluation Test 2. Treatment Effect on Guinea Pig Seborrheic Dermatitis Model
A guinea pig seborrheic dermatitis model was prepared using Malassezia restricta (Malassezia (M.) restricta) as a pathogenic fungus, and a skin symptom improving effect and a mycological treatment effect of 1% luliconazole cream were evaluated. As a comparative drug, 2% ketoconazole cream was used.
Luliconazole was prepared by the Applicant, and as 2% ketoconazole, a commercially available preparation was purchased and used.
As Malassezia restricta, a clinical isolate (R-4) isolated and identified by Teikyo University Institute of Medical Mycology was used. 2.5 mL of a modified Leeming (Leeming and Notman) liquid medium (m-LN. containing olive oil) was added per 1 g wet weight of the precultured strain for suspending therein to give an inoculum. […]
The hair on the back of the animal was shaved, and two inoculation sites (diameter 2 cm) were placed on either side of the back skin symmetrically. […] The skin symptoms were observed through the experiment from the inoculation starting day to the day of sacrifice and recorded by using the score. […] The skin section was successively observed from one end to the other end and the fungal content was evaluated by the criteria shown in the Table. The detection frequency of fungus in each section was determined. […]

Which results are given for `N#C/C(=C1/SC[C@@H](c2ccc(Cl)cc2Cl)S1)n1ccnc1` [Luliconazole, (−)-(E)-[(4R)-(2,4-dichlorophenyl)-1,3-dithioran-2-ylidene](1H-imidazol-1-yl)acetonitrile]?
mycological treatment effect (PAS-stained skin sections, FIG. 2): showed mycological cure; skin symptom improving effect (FIG. 1): improved skin symptom
